The source of these data is patent US20040209776A1, “Azole derivatives useful as insecticide” (priority 2001, published 2004).

Data set [1] concerns Plutella xylostella. Put plainly: Pest mortality test against diamond back moth. The conditions noted are these: 120 h, 500 ppm by weight, mortality assessed usually between two and five days after treatment, read-out: Px mortality (score). The class given is in vivo. On the procedure:
(§1) This Example illustrates the pesticidal/insecticidal properties of compounds of formula (I). The activities of individual compounds of formula (I) were determined using a variety of pests. The pests were treated with a liquid composition containing 500 parts per million (ppm) by weight of a compound of formula (I). Each composition was made by dissolving the compound in an acetone and ethanol (50:50 by volume) mixture and diluting the solution with water containing 0.05% by volume of a wetting agent, SYNPERONIC NP8, until the liquid composition contained the required concentration of the compound. SYNPERONIC is a registered trade mark.
(§2) The test procedure adopted with regard to each pest was essentially the same and comprised supporting a number of the pests on a medium, which was usually a substrate, a host plant or a foodstuff on which the pests feed, and treating either or both the medium and the pests with a composition. Pest mortality was assessed usually between two and five days after treatment.
(§3) Similar tests were conducted against, independently, two-spotted spider mites (Tetranychus urticae), fruit flies (Drosophila melanogaster), tobacco budworms (Heliothis virescens), diamond back moth (Plutella xylostella) and corn root worm (Diabrotica balteata).

Data set [2] has as its system Heliothis virescens. Kind of data set: Pest mortality test against tobacco budworms. The class given is in vivo. The conditions noted are these: 120 h, 500 ppm by weight, mortality assessed usually between two and five days after treatment, read-out: Hv mortality (score). On the procedure: as §1, §2, §3
Data set [3] relates to Meloidogyne incognita. Kind of data set: In vitro test against root knot nematodes suspended in liquid composition. Format: in vivo. The conditions noted are these: 12.5 ppm by weight, no SYNPERONIC NP8, read-out: Mi mortality (score). On the procedure: as §1
Tests were also conducted against root knot nematodes (Meloidogyne incognita) using an in vitro test in which nematodes were suspended in a liquid composition which had been prepared as described above except that it contained a concentration of 12.5 ppm by weight of a compound of formula (I) and it contained no SYNPERONIC NP8.

Data set [4] concerns Diabrotica balteata. Put plainly: Pest mortality test against corn root worm. Format: in vivo. The conditions noted are these: 120 h, 500 ppm by weight, mortality assessed usually between two and five days after treatment, read-out: Db mortality (score). On the procedure: as §1, §2, §3
Data set [5] concerns Myzus persicae. Kind of data set: Pest mortality test against peach potato aphids, infested Chinese cabbage leaves sprayed. The class given is in vivo. The conditions noted are these: 72 h, 500 ppm by weight, sprayed on infested Chinese cabbage leaves, mortality assessed after three days, read-out: Mp mortality (score). On the procedure:
as §1, §2
In each test against peach potato aphids (Myzus persicae), Chinese cabbage leaves were infested with aphids, the infested leaves were sprayed with a test composition and pest mortality was assessed after three days.

Data set [6] deals with Drosophila melanogaster. Put plainly: Pest mortality test against fruit flies. The class given is in vivo. Conditions: 120 h, 500 ppm by weight, mortality assessed usually between two and five days after treatment, read-out: Dm mortality (score). On the procedure: as §1, §2, §3

The melting point is the temperature of the solid-liquid transition. For `Cc1nsc(NC(=O)C(C)c2ccc3oc(-c4cccc(Cl)c4Cl)nc3c2)c1Cl` (stereo not shown) [Compound 11, N-(4-chloro-3-methylisothiazol-5-yl)-2-[2-(2,3-dichlorophenyl)benzoxazol-5-yl]propionamide], the melting point was 158 to 161 °C.
As a reminder, the mortality is the percentage killed. For `CCc1nsc(NC(=O)C(C)c2ccc3oc(-c4c(F)cccc4Cl)nc3c2)c1Cl` (stereo not shown) [Compound 1, N-(4-chloro-3-ethylisothiazol-5-yl)-2-[2-(2-chloro-6-fluorophenyl)benzoxazol-5-yl]propionamide], the mortality at 500 ppm in data set [1], in data set [2], in data set [4], in data set [5] and in data set [6] was 80 to 100% each time. The mortality at 12.5 ppm in data set [3] was less than 40%.
